In PubChem BioAssay (NCI):
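Values below derive from 48-hour exposures of cells grown in 96-well plates, with endpoints linearly interpolated between the two concentrations bracketing the appropriate inhibition level. TGI marks complete inhibition of growth.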

Experiments:
Experiment in all cases: NCI tumour cell line growth inhibition, 48 h
[1] = system: A498 renal
[2] = system: CAKI-1 renal
[3] = system: U251 CNS
[4] = system: MDA-MB-231 breast
[5] = system: 786-0 renal
[6] = system: OVCAR-8 ovarian
[7] = system: MCF7 breast
[8] = system: HT29 colon
[9] = system: HCC-2998 colon
[10] = system: HL-60(TB) leukemia
[11] = system: MOLT-4 leukemia
[12] = system: SF-295 CNS
[13] = system: M14 melanoma
[14] = system: HOP-92 NSCLC
[15] = system: K-562 leukemia
[16] = system: NCI-H460 lung
[17] = system: MALME-3M melanoma
[18] = system: SNB-19 CNS
[19] = system: SR leukemia

Compound | TGI [1] | TGI [2] | TGI [3] | TGI [4] | TGI [5] | TGI [6] | TGI [7] | TGI [8] | TGI [9] | TGI [10] | TGI [11] | TGI [12] | TGI [13] | TGI [14] | TGI [15] | TGI [16] | TGI [17] | TGI [18] | TGI [19]
CCOC(=O)c1c(N2CCOCC2)ncn(-c2cccc(Cl)c2)c1=O | > 100 µM | > 100 µM | > 100 µM | > 100 µM | > 100 µM | > 100 µM | > 100 µM | > 100 µM | > 100 µM | > 100 µM | > 100 µM | > 100 µM | > 100 µM | > 100 µM | > 100 µM | > 100 µM | > 100 µM | > 100 µM | 
c1ccc(C2=NN=C3C(c4ccccc4)=Nc4ccccc4N3C2)cc1 | > 100 µM | > 100 µM | > 100 µM | > 100 µM | > 100 µM | > 100 µM | > 77.4 µM | > 69.6 µM | > 100 µM | 22.2 µM | > 52.3 µM |  | 50.4 µM | > 88.9 µM | > 100 µM | 23.5 µM | 97.9 µM | > 100 µM | 
C=C1C2CC3CCC2C(OC(=O)c2ccccc2C(=O)O)C13 (stereo not given) | > 100 µM | > 100 µM | > 100 µM | > 100 µM | > 100 µM | > 100 µM |  | > 100 µM | > 100 µM | > 100 µM | > 100 µM | > 100 µM | > 100 µM | > 100 µM | > 100 µM | > 100 µM | > 100 µM | > 100 µM | > 100 µM
Cc1ccc(C)n2c1nc1cc3ccccc3cc12 |  |  | > 100 µM |  | > 100 µM | > 100 µM | 16 µM |  |  | > 100 µM | 95.1 µM | > 100 µM | > 100 µM | > 100 µM | > 100 µM |  | > 100 µM | > 100 µM | > 100 µM
CC(=Nc1cccc(Cl)c1)c1ccncc1 | > 100 µM | > 100 µM | > 100 µM | > 100 µM | > 100 µM | > 100 µM | > 100 µM | > 100 µM | > 100 µM |  | > 100 µM | > 100 µM | > 100 µM | > 100 µM | > 100 µM | > 100 µM | > 100 µM | > 100 µM | 
CC1CC(=NC2CCCCC2)Nc2ccccc2N1Cc1ccccc1 (stereo not given) | 9.7 µM | 19.2 µM | 19.9 µM | 17 µM | > 39 µM | 19.8 µM | 14.5 µM | 12.5 µM | 11.5 µM | 20.2 µM | 30 µM | 19.4 µM | 4.46 µM |  | > 36.1 µM | 14.5 µM | 8.8 µM | 24.2 µM | > 100 µM
COc1ccc(/C=C2\CCC(C)c3c2nc(N)c(C#N)c3-c2ccc(OC)c(OC)c2)cc1OC (stereo not given) |  | > 100 µM | > 100 µM | > 100 µM | > 100 µM | > 100 µM | > 100 µM | > 100 µM |  | > 100 µM | > 100 µM | > 100 µM | > 100 µM |  | > 100 µM |  | > 100 µM | > 100 µM | 
